Test results taken from ChEMBL document CHEMBL4308841, “Synthesis, in vitro antiproliferative activity, and kinase inhibitory effects of pyrazole-containing diarylureas and diarylamides” (Eur J Med Chem, 2018).

Columns and labels:
[1] = tested on: A549; assay: Growth inhibition of human A549/ATCC cells incubated for 48 hrs by sulforhodamine B assay; format: functional, cell-based; conditions: A549, 48 h
[2] = tested on: HCT-116; assay: Growth inhibition of human HCT116 cells incubated for 48 hrs by sulforhodamine B assay; format: functional, cell-based; conditions: HCT-116, 48 h
[3] = tested on: SF-295; assay: Growth inhibition of human SF295 cells incubated for 48 hrs by sulforhodamine B assay; format: functional, cell-based; conditions: SF-295, 48 h
[4] = tested on: SK-MEL-28; assay: Growth inhibition of human SK-MEL-28 cells incubated for 48 hrs by sulforhodamine B assay; format: functional, cell-based; conditions: SK-MEL-28, 48 h
[5] = tested on: MDA-MB-231; assay: Growth inhibition of human MDA-MB-231 cells incubated for 48 hrs by sulforhodamine B assay; format: functional, cell-based; conditions: MDA-MB-231, 48 h
[6] = tested on: T47D; assay: Growth inhibition of human T47D cells incubated for 48 hrs by sulforhodamine B assay; format: functional, cell-based
[7] = tested on: K562; assay: Growth inhibition of human K562 cells assessed as cell growth at 0.01 uM incubated for 48 hrs by sulforhodamine B assay relative to control; format: functional; conditions: K562, 48 h, read-out: Activity
[8] = tested on: Malme-3M; assay: Growth inhibition of human MALME-3M cells assessed as cell growth at 0.01 uM incubated for 48 hrs by sulforhodamine B assay relative to control; format: functional; conditions: read-out: Activity
[9] = tested on: OVCAR-8; assay: Growth inhibition of human OVCAR8 cells assessed as cell growth at 0.01 uM incubated for 48 hrs by sulforhodamine B assay relative to control; format: functional; conditions: OVCAR-8, 48 h, read-out: Activity
[10] = tested on: A498; assay: Growth inhibition of human A498 cells assessed as cell growth at 0.01 uM incubated for 48 hrs by sulforhodamine B assay relative to control; format: functional; conditions: A498, 48 h, read-out: Activity
[11] = tested on: CAKI-1; assay: Growth inhibition of human Caki1 cells assessed as cell growth at 0.01 uM incubated for 48 hrs by sulforhodamine B assay relative to control; format: functional; conditions: CAKI-1, 48 h, read-out: Activity
[12] = tested on: NCI-H460; assay: Growth inhibition of human NCI-H460 cells assessed as cell growth at 0.1 uM incubated for 48 hrs by sulforhodamine B assay relative to control; format: functional; conditions: NCI-H460, 48 h, read-out: Activity
[13] = tested on: HCT-116; assay: Growth inhibition of human HCT116 cells assessed as cell growth at 0.1 uM incubated for 48 hrs by sulforhodamine B assay relative to control; format: functional; conditions: HCT-116, 48 h, read-out: Activity
[14] = tested on: IGROV-1; assay: Growth inhibition of human IGROV1 cells assessed as cell growth at 0.1 uM incubated for 48 hrs by sulforhodamine B assay relative to control; format: functional; conditions: IGROV-1, 48 h, read-out: Activity
[15] = tested on: NCI/ADR-RES; assay: Growth inhibition of human NCI/ADR-RES cells assessed as cell growth at 0.1 uM incubated for 48 hrs by sulforhodamine B assay relative to control; format: functional; conditions: read-out: Activity
[16] = tested on: ACHN; assay: Growth inhibition of human ACHN cells assessed as cell growth at 0.1 uM incubated for 48 hrs by sulforhodamine B assay relative to control; format: functional; conditions: read-out: Activity
[17] = tested on: MCF7; assay: Growth inhibition of human MCF7 cells assessed as cell growth at 0.1 uM incubated for 48 hrs by sulforhodamine B assay relative to control; format: functional; conditions: MCF7, 48 h, read-out: Activity
[18] = tested on: T47D; assay: Growth inhibition of human T47D cells assessed as cell growth at 0.1 uM incubated for 48 hrs by sulforhodamine B assay relative to control; format: functional; conditions: read-out: Activity
[19] = tested on: SNB-75; assay: Growth inhibition of human SNB75 cells assessed as cell growth at 1 uM incubated for 48 hrs by sulforhodamine B assay relative to control; format: functional; conditions: SNB-75, 48 h, read-out: Activity
[20] = tested on: MDA-MB-435; assay: Growth inhibition of human MDA-MB-435 cells assessed as cell growth at 1 uM incubated for 48 hrs by sulforhodamine B assay relative to control; format: functional; conditions: MDA-MB-435, 48 h, read-out: Activity
[21] = tested on: UACC-62; assay: Growth inhibition of human UACC62 cells assessed as cell growth at 1 uM incubated for 48 hrs by sulforhodamine B assay relative to control; format: functional; conditions: UACC-62, 48 h, read-out: Activity
[22] = tested on: RXF 393; assay: Growth inhibition of human RXF393 cells assessed as cell growth at 1 uM incubated for 48 hrs by sulforhodamine B assay relative to control; format: functional; conditions: RXF 393, 48 h, read-out: Activity
[23] = tested on: DU-145; assay: Growth inhibition of human DU145 cells assessed as cell growth at 1 uM incubated for 48 hrs by sulforhodamine B assay relative to control; format: functional; conditions: DU-145, 48 h, read-out: Activity
[24] = tested on: T47D; assay: Growth inhibition of human T47D cells assessed as cell growth at 1 uM incubated for 48 hrs by sulforhodamine B assay relative to control; format: functional; conditions: read-out: Activity
[25] = tested on: KM12; assay: Growth inhibition of human KM12 cells assessed as cell growth at 100 uM incubated for 48 hrs by sulforhodamine B assay relative to control; format: functional; conditions: KM12, 48 h, read-out: Activity
[26] = tested on: SK-MEL-2; assay: Growth inhibition of human SK-MEL-2 cells assessed as cell growth at 100 uM incubated for 48 hrs by sulforhodamine B assay relative to control; format: functional; conditions: SK-MEL-2, 48 h, read-out: Activity
[27] = tested on: UACC-62; assay: Growth inhibition of human UACC62 cells assessed as cell growth at 100 uM incubated for 48 hrs by sulforhodamine B assay relative to control; format: functional; conditions: UACC-62, 48 h, read-out: Activity
[28] = tested on: DU-145; assay: Growth inhibition of human DU145 cells assessed as cell growth at 100 uM incubated for 48 hrs by sulforhodamine B assay relative to control; format: functional; conditions: DU-145, 48 h, read-out: Activity
[29] = tested on: MDA-MB-231; assay: Growth inhibition of human MDA-MB-231 cells assessed as cell growth at 100 uM incubated for 48 hrs by sulforhodamine B assay relative to control; format: functional; conditions: MDA-MB-231, 48 h, read-out: Activity
[30] = read-out: LC50 (the source's name)
[31] = read-out: pLC50 (the source's name) (converted)

Structure (SMILES): COc1cc(Cl)cc(-c2nn(-c3cccc(NC(=O)Nc4ccc(Cl)c(C(F)(F)F)c4)c3)cc2-c2ccncc2)c1
- IC50 [1]: 680 nM
- GI50 ([1]; read-out: GI50): 676 nM
- CC50 [1, 30]: 4.32 µM
- TGI ([1]; read-out: TGI): 10.6 µM
- GI50 ([1]; read-out: pGI50 (converted)): 676 nM
- CC50 [1, 31]: 46.8 µM
- TGI ([1]; read-out: pTGI (converted)): 10.7 µM
- IC50 [2]: 630 nM
- GI50 ([2]; read-out: GI50): 631 nM
- CC50 [2, 30]: 7.3 µM
- TGI ([2]; read-out: TGI): 23.6 µM
- GI50 ([2]; read-out: pGI50 (converted)): 631 nM
- CC50 [2, 31]: 7.24 µM
- TGI ([2]; read-out: pTGI (converted)): 2.34 µM
- GI50 ([3]; read-out: GI50): 455 nM
- CC50 [3, 30]: 5.15 µM
- TGI ([3]; read-out: TGI): 20 µM
- GI50 ([3]; read-out: pGI50 (converted)): 468 nM
- CC50 [3, 31]: 6.17 µM
- TGI ([3]; read-out: pTGI (converted)): 2 µM
- GI50 ([4]; read-out: GI50): 2410 nM
- CC50 [4, 30]: 5.41 µM
- TGI ([4]; read-out: TGI): 84.1 µM
- GI50 ([4]; read-out: pGI50 (converted)): 2400 nM
- CC50 [4, 31]: 53.7 µM
- TGI ([4]; read-out: pTGI (converted)): 4.17 µM
- GI50 ([5]; read-out: GI50): 1440 nM
- CC50 [5, 30]: 9.52 µM
- TGI ([5]; read-out: TGI): 37.4 µM
- GI50 ([5]; read-out: pGI50 (converted)): 1450 nM
- CC50 [5, 31]: 9.77 µM
- TGI ([5]; read-out: pTGI (converted)): 3.72 µM
- GI50 ([6]; read-out: GI50): 1250 nM
- CC50 [6, 30]: > 100 µM
- TGI ([6]; read-out: TGI): 80.2 µM
- GI50 ([6]; read-out: pGI50 (converted)): 1260 nM
- CC50 [6, 31]: > 100 µM
- TGI ([6]; read-out: pTGI (converted)): 7.94 µM
- growth at 0.01 µM [7]: 94%
- growth at 0.01 µM [8]: 94%
- growth at 0.01 µM [9]: 98%
- growth at 0.01 µM [10]: 57%
- growth at 0.01 µM [11]: 98%
- growth at 0.1 µM [12]: 102%
- growth at 0.1 µM [13]: 97%
- growth at 0.1 µM [14]: 99%
- growth at 0.1 µM [15]: 69%
- growth at 0.1 µM [16]: 57%
- growth at 0.1 µM [17]: 93%
- growth at 0.1 µM [18]: 103%
- growth at 1 µM [19]: 68%
- growth at 1 µM [20]: 81%
- growth at 1 µM [21]: 82%
- growth at 1 µM [22]: 78%
- growth at 1 µM [23]: 64%
- growth at 1 µM [24]: 58%
- growth at 100 µM [25]: -70%
- growth at 100 µM [26]: -85%
- growth at 100 µM [27]: -85%
- growth at 100 µM [28]: -71%
- growth at 100 µM [29]: -88%
